Experimental data: patent US9340590B2 (priority 2011, dated 2016)
pIC50: −log10 of the molar value. Where two headings read alike, the source gives them in different places. Positions of bridges follow the written chain, without caps; N, C: chain ends. Non-standard residues stand in square brackets, D forms with d. Residues, ends and D or L forms follow the SMILES beside them. Bip = N[C@@H](Cc1ccc(-c2ccccc2)cc1)C(=O)O; 2Thi = N[C@@H](Cc1cccs1)C(=O)O; Nle = CCCC[C@H](N)C(=O)O; Abu = CC[C@H](N)C(=O)O

Experiments:
Assay in all cases: cell-based
[1] = molecular target: hNav1.7 (Homo sapiens, UniProt Q15858); type: cell-based; details: IonWorks Quattro, read-out: IWQ Use Nav1.7
[2] = molecular target: hNav1.3 (Homo sapiens, UniProt Q9NY46); details: IonWorks Quattro, read-out: IWQ Use Nav1.3
[3] = molecular target: hNav1.5 (Homo sapiens, UniProt Q14524); details: IonWorks Quattro, read-out: IWQ Use Nav1.5
Sequence of hNav1.5 (Q14524 whole entry, looked up): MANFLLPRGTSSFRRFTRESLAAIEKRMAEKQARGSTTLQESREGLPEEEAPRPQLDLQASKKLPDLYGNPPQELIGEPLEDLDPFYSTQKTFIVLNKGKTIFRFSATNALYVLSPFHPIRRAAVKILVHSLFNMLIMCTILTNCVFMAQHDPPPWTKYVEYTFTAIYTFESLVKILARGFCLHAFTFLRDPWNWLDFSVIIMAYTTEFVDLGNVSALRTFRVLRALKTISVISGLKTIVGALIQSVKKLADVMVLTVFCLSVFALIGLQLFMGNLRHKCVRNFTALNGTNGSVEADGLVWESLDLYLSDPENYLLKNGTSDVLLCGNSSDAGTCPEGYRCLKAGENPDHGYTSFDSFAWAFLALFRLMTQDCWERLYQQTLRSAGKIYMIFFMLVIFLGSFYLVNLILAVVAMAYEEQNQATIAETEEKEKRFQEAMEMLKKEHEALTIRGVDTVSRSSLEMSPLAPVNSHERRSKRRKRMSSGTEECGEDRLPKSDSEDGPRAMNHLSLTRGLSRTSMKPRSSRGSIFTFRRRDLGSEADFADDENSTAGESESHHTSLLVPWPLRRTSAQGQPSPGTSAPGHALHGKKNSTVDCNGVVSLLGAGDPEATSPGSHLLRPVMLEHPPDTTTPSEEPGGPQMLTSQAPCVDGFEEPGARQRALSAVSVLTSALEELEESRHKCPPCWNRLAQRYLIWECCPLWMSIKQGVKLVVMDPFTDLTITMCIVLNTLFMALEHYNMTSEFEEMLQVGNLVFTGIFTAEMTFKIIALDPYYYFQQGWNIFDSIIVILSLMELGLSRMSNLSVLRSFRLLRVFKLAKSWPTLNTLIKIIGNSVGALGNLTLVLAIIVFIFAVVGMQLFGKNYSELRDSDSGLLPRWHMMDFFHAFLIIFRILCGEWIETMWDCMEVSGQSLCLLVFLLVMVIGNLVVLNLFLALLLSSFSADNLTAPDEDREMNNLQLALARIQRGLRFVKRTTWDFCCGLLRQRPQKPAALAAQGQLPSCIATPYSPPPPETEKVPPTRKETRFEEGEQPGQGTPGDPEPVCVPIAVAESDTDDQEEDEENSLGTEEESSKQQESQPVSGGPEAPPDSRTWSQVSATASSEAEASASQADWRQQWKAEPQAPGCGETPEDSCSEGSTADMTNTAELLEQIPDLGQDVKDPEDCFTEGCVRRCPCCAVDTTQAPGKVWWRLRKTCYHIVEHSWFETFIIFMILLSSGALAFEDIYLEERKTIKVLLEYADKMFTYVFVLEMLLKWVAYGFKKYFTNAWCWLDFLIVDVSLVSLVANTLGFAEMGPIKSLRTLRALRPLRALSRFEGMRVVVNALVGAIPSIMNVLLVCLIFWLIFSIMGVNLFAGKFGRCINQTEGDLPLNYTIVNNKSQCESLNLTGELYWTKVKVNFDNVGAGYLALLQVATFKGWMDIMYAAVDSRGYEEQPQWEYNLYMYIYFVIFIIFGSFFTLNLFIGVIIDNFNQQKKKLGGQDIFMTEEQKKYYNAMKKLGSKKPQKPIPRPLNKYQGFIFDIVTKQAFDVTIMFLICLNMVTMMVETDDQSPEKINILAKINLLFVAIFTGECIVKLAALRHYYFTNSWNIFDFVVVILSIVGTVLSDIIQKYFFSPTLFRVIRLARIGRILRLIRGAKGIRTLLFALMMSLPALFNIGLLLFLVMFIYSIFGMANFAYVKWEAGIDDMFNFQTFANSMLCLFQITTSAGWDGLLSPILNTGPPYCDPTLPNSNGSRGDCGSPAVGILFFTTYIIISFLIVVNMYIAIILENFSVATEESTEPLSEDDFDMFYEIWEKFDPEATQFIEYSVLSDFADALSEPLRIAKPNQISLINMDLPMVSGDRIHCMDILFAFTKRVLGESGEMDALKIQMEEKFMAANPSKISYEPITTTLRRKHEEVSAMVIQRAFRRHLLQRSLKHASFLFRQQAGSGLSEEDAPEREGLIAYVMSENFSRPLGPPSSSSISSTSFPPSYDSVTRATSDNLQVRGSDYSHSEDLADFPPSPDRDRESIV

Sequence of hNav1.3 (Q9NY46 whole entry, looked up): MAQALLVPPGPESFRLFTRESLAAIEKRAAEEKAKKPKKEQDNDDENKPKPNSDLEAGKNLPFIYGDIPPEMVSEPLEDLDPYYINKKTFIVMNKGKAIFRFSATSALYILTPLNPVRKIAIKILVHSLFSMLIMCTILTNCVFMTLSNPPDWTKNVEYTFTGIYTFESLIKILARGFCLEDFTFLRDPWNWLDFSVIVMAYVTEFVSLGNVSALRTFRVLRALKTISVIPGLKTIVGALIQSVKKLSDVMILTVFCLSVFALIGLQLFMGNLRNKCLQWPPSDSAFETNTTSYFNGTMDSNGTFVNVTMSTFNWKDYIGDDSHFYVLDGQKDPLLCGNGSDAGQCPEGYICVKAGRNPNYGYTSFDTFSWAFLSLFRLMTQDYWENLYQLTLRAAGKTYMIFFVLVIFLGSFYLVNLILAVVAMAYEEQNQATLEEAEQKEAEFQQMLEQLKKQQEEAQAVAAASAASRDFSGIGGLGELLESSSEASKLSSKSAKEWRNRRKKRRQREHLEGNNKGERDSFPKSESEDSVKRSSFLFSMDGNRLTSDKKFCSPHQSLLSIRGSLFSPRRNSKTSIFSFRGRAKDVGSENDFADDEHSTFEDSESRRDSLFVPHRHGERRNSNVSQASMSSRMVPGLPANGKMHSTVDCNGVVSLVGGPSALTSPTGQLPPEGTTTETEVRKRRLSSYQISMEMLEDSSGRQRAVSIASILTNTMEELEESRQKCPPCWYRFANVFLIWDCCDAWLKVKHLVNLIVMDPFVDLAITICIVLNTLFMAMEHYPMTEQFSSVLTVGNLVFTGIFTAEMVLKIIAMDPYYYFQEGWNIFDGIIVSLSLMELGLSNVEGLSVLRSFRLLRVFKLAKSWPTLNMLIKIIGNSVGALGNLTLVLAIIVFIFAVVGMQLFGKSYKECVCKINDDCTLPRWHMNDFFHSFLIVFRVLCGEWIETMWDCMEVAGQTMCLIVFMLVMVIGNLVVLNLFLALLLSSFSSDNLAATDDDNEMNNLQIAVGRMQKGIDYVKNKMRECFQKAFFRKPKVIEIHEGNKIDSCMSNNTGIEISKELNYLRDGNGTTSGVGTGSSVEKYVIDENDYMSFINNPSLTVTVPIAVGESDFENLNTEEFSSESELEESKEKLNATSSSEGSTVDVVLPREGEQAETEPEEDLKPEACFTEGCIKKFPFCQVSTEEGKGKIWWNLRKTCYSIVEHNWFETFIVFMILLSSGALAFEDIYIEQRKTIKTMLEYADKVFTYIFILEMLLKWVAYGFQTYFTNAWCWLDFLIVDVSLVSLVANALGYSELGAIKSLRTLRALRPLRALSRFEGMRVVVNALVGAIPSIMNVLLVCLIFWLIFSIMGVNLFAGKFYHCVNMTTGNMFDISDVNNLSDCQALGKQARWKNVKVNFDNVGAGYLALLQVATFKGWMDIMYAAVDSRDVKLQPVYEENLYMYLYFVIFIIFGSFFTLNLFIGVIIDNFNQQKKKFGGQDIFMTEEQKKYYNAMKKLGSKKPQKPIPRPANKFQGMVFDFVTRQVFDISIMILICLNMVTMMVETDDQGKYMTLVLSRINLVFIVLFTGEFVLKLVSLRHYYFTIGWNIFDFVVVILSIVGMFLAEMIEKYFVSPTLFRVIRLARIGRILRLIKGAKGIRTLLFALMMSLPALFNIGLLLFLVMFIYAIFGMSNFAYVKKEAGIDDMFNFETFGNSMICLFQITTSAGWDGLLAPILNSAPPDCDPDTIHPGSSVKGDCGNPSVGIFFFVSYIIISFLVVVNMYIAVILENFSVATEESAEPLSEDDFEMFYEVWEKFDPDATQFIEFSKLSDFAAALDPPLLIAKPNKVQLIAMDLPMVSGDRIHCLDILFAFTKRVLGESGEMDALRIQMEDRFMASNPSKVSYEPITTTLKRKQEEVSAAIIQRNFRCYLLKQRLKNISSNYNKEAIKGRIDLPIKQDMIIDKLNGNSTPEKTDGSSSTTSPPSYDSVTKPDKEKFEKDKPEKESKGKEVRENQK

Compound | pIC50 ([1]; use-dependent block, hNav1.7) | pIC50 ([2]; use-dependent block, hNav1.3) | pIC50 ([3]; use-dependent block, hNav1.5) | further results
CC[C@H](C)[C@@H]1NC(=O)[C@@H]2CSSC[C@@H]3NC(=O)[C@H](C(C)C)NC(=O)[C@H](CC(C)C)NC(=O)[C@H](CC(N)=O)NC(=O)[C@@H]4CCCN4C(=O)[C@H](CCCNC(=N)N)NC(=O)[C@H](CSSC[C@H](NC(=O)[C@@H](N)CC(=O)O)C(=O)N[C@@H](CC(C)C)C(=O)NCC(=O)N[C@@H](Cc4ccccc4)C(=O)N[C@@H](CCSC)C(=O)N[C@@H](CCCNC(=N)N)C(=O)N[C@@H](CCCCN)C(=O)N2)NC(=O)[C@H](CSSC[C@@H](C(=O)N[C@@H](CCCCN)C(=O)N[C@@H](Cc2ccc(O)cc2)C(=O)N[C@@H](Cc2c[nH]cn2)C(=O)N[C@@H](Cc2ccccc2)C(N)=O)NC(=O)[C@H](Cc2c[nH]c4ccccc24)NC(=O)[C@H](CCCCN)NC(=O)[C@H](Cc2c[nH]cn2)NC(=O)[C@H]([C@@H](C)O)NC(=O)[C@H](CCCNC(=N)N)NC(=O)[C@H](CO)NC3=O)NC(=O)[C@H](CCCCN)NC(=O)[C@H](CC(=O)O)NC(=O)[C@H](CC(N)=O)NC(=O)[C@H](CC(=O)O)NC(=O)[C@@H]2CCCN2C1=O [compound 392] (H-DCLGFMRKCIPDNDKCCRPNLVCSRTHKWCKYHF-NH2; disulfide 2-17, 9-23, 16-30) | – | – | – | pIC50 ([1]; Table 26, use, […]): 7.70; pIC50 ([2]; Table 26, use, […]): 8.00; pIC50 ([3]; Table 26, use, […]): 5.09
CCCC[C@@H]1NC(=O)CNC(=O)[C@H](CC(C)C)NC(=O)[C@@H](NC(=O)[C@@H](N)CC(=O)O)CSSC[C@@H]2NC(=O)[C@@H]3CSSC[C@@H](C(=O)N[C@@H](CCCCN)C(=O)N[C@@H](Cc4ccc(O)cc4)C(=O)N[C@H](C(=O)N[C@@H](Cc4ccccc4)C(N)=O)C(C)C)NC(=O)[C@H](Cc4c[nH]c5ccccc45)NC(=O)[C@H](CCCCN)NC(=O)[C@H](Cc4c[nH]cn4)NC(=O)[C@H]([C@@H](C)O)NC(=O)[C@H](CCCNC(=N)N)NC(=O)[C@H](CO)NC(=O)[C@H](CSSC[C@H](NC(=O)[C@H](CCCCN)NC(=O)[C@H](CCCNC(=N)N)NC(=O)[C@H](Cc4ccccc4)NC1=O)C(=O)N[C@@H]([C@@H](C)CC)C(=O)N1CCC[C@H]1C(=O)N[C@@H](CC(=O)O)C(=O)N[C@@H](CC(N)=O)C(=O)N[C@@H](CC(=O)O)C(=O)N[C@@H](CCCCN)C(=O)N3)NC(=O)[C@H](C(C)C)NC(=O)[C@H](CC(C)C)NC(=O)[C@H](CC(N)=O)NC(=O)[C@@H]1CCCN1C(=O)[C@H](CCCNC(=N)N)NC2=O [compound 607] (H-DCLG[Nle]FRKCIPDNDKCCRPNLVCSRTHKWCKYVF-NH2; disulfide 2-17, 9-23, 16-30) | 7.80 | 7.17 | 4.95 | –
CC[C@H](C)[C@@H]1NC(=O)[C@@H]2CSSC[C@@H]3NC(=O)[C@H](C(C)C)NC(=O)[C@H](CC(C)C)NC(=O)[C@H](CC(N)=O)NC(=O)[C@@H]4CCCN4C(=O)[C@H](CCCNC(=N)N)NC(=O)[C@H](CSSC[C@H](NC(=O)[C@@H](N)CC(=O)O)C(=O)N[C@@H](CC(C)C)C(=O)NCC(=O)N[C@@H](C)C(=O)N[C@@H](CCSC)C(=O)N[C@@H](CCCNC(=N)N)C(=O)N[C@@H](CCCCN)C(=O)N2)NC(=O)[C@H](CSSC[C@@H](C(=O)N[C@@H](CCCCN)C(=O)N[C@@H](Cc2ccc(O)cc2)C(=O)N[C@H](C(=O)N[C@@H](Cc2ccccc2)C(N)=O)C(C)C)NC(=O)[C@H](Cc2c[nH]c4ccccc24)NC(=O)[C@H](CC(N)=O)NC(=O)[C@H](Cc2c[nH]cn2)NC(=O)[C@H]([C@@H](C)O)NC(=O)[C@H](CCCNC(=N)N)NC(=O)[C@H](CO)NC3=O)NC(=O)[C@H](CCCCN)NC(=O)[C@H](CC(=O)O)NC(=O)[C@H](CC(N)=O)NC(=O)[C@H](CC(=O)O)NC(=O)[C@@H]2CCCN2C1=O [compound 767] (H-DCLGAMRKCIPDNDKCCRPNLVCSRTHNWCKYVF-NH2; disulfide 2-17, 9-23, 16-30) | 5.77 | 5.49 | < 4.30 | –
CC[C@H](C)[C@@H]1NC(=O)[C@@H]2CSSC[C@@H]3NC(=O)[C@H](C(C)C)NC(=O)[C@H](CC(C)C)NC(=O)[C@H](CC(N)=O)NC(=O)[C@@H]4CCCN4C(=O)[C@H](CCCNC(=N)N)NC(=O)[C@H](CSSC[C@H](NC(=O)[C@@H](N)CC(=O)O)C(=O)N[C@@H](CC(C)C)C(=O)NCC(=O)N[C@@H](Cc4cccs4)C(=O)N[C@@H](Cc4ccccc4)C(=O)N[C@@H](CCCNC(=N)N)C(=O)N[C@@H](CCCCN)C(=O)N2)NC(=O)[C@H](CSSC[C@@H](C(=O)N[C@@H](CCCCN)C(=O)N[C@@H](Cc2ccc(O)cc2)C(=O)N[C@H](C(=O)N[C@@H](Cc2ccccc2)C(N)=O)C(C)C)NC(=O)[C@H](Cc2c[nH]c4ccccc24)NC(=O)[C@H](CCCCN)NC(=O)[C@H](Cc2c[nH]cn2)NC(=O)[C@H]([C@@H](C)O)NC(=O)[C@H](CCCNC(=N)N)NC(=O)[C@H](CO)NC3=O)NC(=O)[C@H](CCCCN)NC(=O)[C@H](CC(=O)O)NC(=O)[C@H](CC(N)=O)NC(=O)[C@H](CC(=O)O)NC(=O)[C@@H]2CCCN2C1=O [compound 614] (H-DCLG[2Thi]FRKCIPDNDKCCRPNLVCSRTHKWCKYVF-NH2; disulfide 2-17, 9-23, 16-30) | 7.92 | 7.11 | 5.39 | –
CC[C@@H]1NC(=O)CNC(=O)[C@H](CC(C)C)NC(=O)[C@@H](NC(=O)[C@@H](N)CC(=O)O)CSSC[C@@H]2NC(=O)[C@@H]3CSSC[C@@H](C(=O)N[C@@H](CCCCN)C(=O)N[C@@H](Cc4ccc(O)cc4)C(=O)N[C@H](C(=O)N[C@@H](Cc4ccccc4)C(N)=O)C(C)C)NC(=O)[C@H](Cc4c[nH]c5ccccc45)NC(=O)[C@H](CCCCN)NC(=O)[C@H](Cc4c[nH]cn4)NC(=O)[C@H]([C@@H](C)O)NC(=O)[C@H](CCCNC(=N)N)NC(=O)[C@H](CO)NC(=O)[C@H](CSSC[C@H](NC(=O)[C@H](CCCCN)NC(=O)[C@H](CCCNC(=N)N)NC(=O)[C@H](Cc4ccccc4)NC1=O)C(=O)N[C@@H]([C@@H](C)CC)C(=O)N1CCC[C@H]1C(=O)N[C@@H](CC(=O)O)C(=O)N[C@@H](CC(N)=O)C(=O)N[C@@H](CC(=O)O)C(=O)N[C@@H](CCCCN)C(=O)N3)NC(=O)[C@H](C(C)C)NC(=O)[C@H](CC(C)C)NC(=O)[C@H](CC(N)=O)NC(=O)[C@@H]1CCCN1C(=O)[C@H](CCCNC(=N)N)NC2=O [compound 605] (H-DCLG[Abu]FRKCIPDNDKCCRPNLVCSRTHKWCKYVF-NH2; disulfide 2-17, 9-23, 16-30) | 6.77 | 6.44 | 5.02 | –
CC[C@H](C)[C@@H]1NC(=O)[C@@H]2CSSC[C@@H]3NC(=O)[C@H](C(C)C)NC(=O)[C@H](CC(C)C)NC(=O)[C@H](CC(N)=O)NC(=O)[C@@H]4CCCN4C(=O)[C@H](CCCNC(=N)N)NC(=O)[C@H](CSSC[C@H](NC(=O)[C@@H](N)CC(=O)O)C(=O)N[C@@H](CC(C)C)C(=O)NCC(=O)N[C@@H](C)C(=O)N[C@@H](Cc4cn(C)c5ccccc45)C(=O)N[C@@H](CCCNC(=N)N)C(=O)N[C@@H](CCCCN)C(=O)N2)NC(=O)[C@H](CSSC[C@@H](C(=O)N[C@@H](CCCCN)C(=O)N[C@@H](Cc2ccc(O)cc2)C(=O)N[C@H](C(=O)N[C@@H](Cc2ccccc2)C(N)=O)C(C)C)NC(=O)[C@H](Cc2c[nH]c4ccccc24)NC(=O)[C@H](CCCCN)NC(=O)[C@H](Cc2c[nH]cn2)NC(=O)[C@H]([C@@H](C)O)NC(=O)[C@H](CCCNC(=N)N)NC(=O)[C@H](CO)NC3=O)NC(=O)[C@H](CCCCN)NC(=O)[C@H](CC(=O)O)NC(=O)[C@H](CC(N)=O)NC(=O)[C@H](CC(=O)O)NC(=O)[C@@H]2CCCN2C1=O [compound 699] | – | – | – | pIC50 ([1]; use-dependent protocol, hNav1.7): 6.47; pIC50 ([2]; use-dependent protocol, hNav1.3): 6.49; pIC50 ([3]; use-dependent protocol, hNav1.5): < 5.30
CC[C@H](C)[C@@H]1NC(=O)[C@@H]2CSSC[C@@H]3NC(=O)[C@H](C(C)C)NC(=O)[C@H](CC(C)C)NC(=O)[C@H](CC(N)=O)NC(=O)[C@@H]4CCCN4C(=O)[C@H](CCCNC(=N)N)NC(=O)[C@H](CSSC[C@H](NC(=O)[C@@H](N)CC(=O)O)C(=O)N[C@@H](CC(C)C)C(=O)NCC(=O)N[C@@H](Cc4ccccc4)C(=O)N[C@@H](CCSC)C(=O)N[C@@H](CCCNC(=N)N)C(=O)N[C@@H](CCCCN)C(=O)N2)NC(=O)[C@H](CSSC[C@@H](C(=O)N[C@@H](CCCCN)C(=O)N[C@@H](Cc2ccc(O)cc2)C(=O)N[C@H](C(=O)N[C@@H](Cc2ccccc2)C(N)=O)C(C)C)NC(=O)[C@H](Cc2ccc(-c4ccccc4)cc2)NC(=O)[C@H](CCCCN)NC(=O)[C@H](Cc2c[nH]cn2)NC(=O)[C@H]([C@@H](C)O)NC(=O)[C@H](CCCNC(=N)N)NC(=O)[C@H](CO)NC3=O)NC(=O)[C@H](CCCCN)NC(=O)[C@H](CC(=O)O)NC(=O)[C@H](CC(N)=O)NC(=O)[C@H](CC(=O)O)NC(=O)[C@@H]2CCCN2C1=O [compound 360] (H-DCLGFMRKCIPDNDKCCRPNLVCSRTHK[Bip]CKYVF-NH2; disulfide 2-17, 9-23, 16-30) | – | – | – | pIC50 ([1]; Table 24, use, […]): 5.32; pIC50 ([2]; Table 24, use, […]): 5.16; pIC50 ([3]; Table 24, use, […]): 5.01
